Data from patent US8349844B2, “Substituted pyrazolo [1,5-A] pyrimidines as metabotropic glutamate antagonists” (Hoffmann-La Roche Inc., priority 2005, dated 2013).

Compound	melting point
Cc1cc(-c2cc(C(F)(F)F)n3ncc(-c4nc(-c5ccc(N)nc5)no4)c3n2)ccc1C(F)(F)F [Example 37, 5-{5-[5-(3-Methyl-4-trifluoromethyl-phenyl)-7-trifluoromethyl-pyrazolo[1,5-a]pyrimidin-3-yl]-[1,2,4]oxadiazol-3-yl}-pyridin-2-ylamine]	220 °C
Cc1cc(-c2ccc(Cl)cc2)cn2c(-c3nc(-c4ccc(S(N)(=O)=O)cc4)no3)cnc12 [Example 39, 4-{5-[6-(4-Chloro-phenyl)-8-methyl-imidazo[1,2-a]pyridin-3-yl]-[1,2,4]oxadiazol-3-yl}-benzenesulfonamide]	311 °C
NS(=O)(=O)c1ccc(-c2noc(-c3cnc4ccc(-c5ccc(Cl)cc5)cn34)n2)s1 [Example 55, 5-{5-[6-(4-Chloro-phenyl)-imidazo[1,2-a]pyridin-3-yl]-[1,2,4]oxadiazol-3-yl}-thiophene-2-sulfonic acid amide]	263 °C
Nc1ccc(-c2noc(-c3cnc4ccc(-c5ccc(C(F)(F)F)cc5)cn34)n2)cn1 [Example 56, 5-{5-[6-(4-Trifluoromethyl-phenyl)-imidazo[1,2-a]pyridin-3-yl]-[1,2,4]oxadiazol-3-yl}-pyridin-2-ylamine]	258 °C
Nc1ccc(-c2noc(-c3cnc4ccc(-c5ccc(Cl)cc5)cn34)n2)cn1 [Example 57, 5-{5-[6-(4-Chloro-phenyl)-imidazo[1,2-a]pyridin-3-yl]-[1,2,4]oxadiazol-3-yl}-pyridin-2-ylamine]	273 °C
Nc1ccc(-c2noc(-c3cnn4c(C(F)F)cc(-c5ccc(Cl)cc5)nc34)n2)cn1 [Example 63, 5-{5-[5-(4-Chloro-phenyl)-7-difluoromethyl-pyrazolo[1,5-a]pyrimidin-3-yl]-[1,2,4]oxadiazol-3-yl}-pyridin-2-ylamine]	254 °C
Cc1cc(-c2cc(C(F)(F)F)n3ncc(-c4nc(-c5ccc(N)nc5)no4)c3n2)ccc1Cl [Example 64, 5-{5-[5-(4-Chloro-3-methyl-phenyl)-7-trifluoromethyl-pyrazolo[1,5-a]pyrimidin-3-yl]-[1,2,4]oxadiazol-3-yl}-pyridin-2-ylamine]	262 °C
Cc1cc(-c2cc(C(F)F)n3ncc(-c4nc(-c5ccc(N)nc5)no4)c3n2)ccc1C(F)(F)F [Example 65, 5-{5-[7-Difluoromethyl-5-(3-methyl-4-trifluoromethyl-phenyl)-pyrazolo[1,5-a]pyrimidin-3-yl]-[1,2,4]oxadiazol-3-yl}-pyridin-2-ylamine]	231 °C
Nc1ccc(-c2noc(-c3cnn4c(C(F)F)cc(-c5ccc(Cl)c(Cl)c5)nc34)n2)cn1 [Example 66, 5-{5-[5-(3,4-Dichloro-phenyl)-7-difluoromethyl-pyrazolo[1,5-a]pyrimidin-3-yl]-[1,2,4]oxadiazol-3-yl}-pyridin-2-ylamine]	279 °C
Nc1ccc(-c2noc(-c3cnn4c(C(F)(F)F)cc(-c5ccc(Cl)c(Cl)c5)nc34)n2)cn1 [Example 67, 5-{5-[5-(3,4-Dichloro-phenyl)-7-trifluoromethyl-pyrazolo[1,5-a]pyrimidin-3-yl]-[1,2,4]oxadiazol-3-yl}-pyridin-2-ylamine]	289 °C
CCOc1cc(-c2cc(C(F)F)n3ncc(-c4nc(-c5ccc(N)nc5)no4)c3n2)ccc1C(F)(F)F [Example 68, 5-{5-[7-Difluoromethyl-5-(3-ethoxy-4-trifluoromethyl-phenyl)-pyrazolo[1,5-a]pyrimidin-3-yl]-[1,2,4]oxadiazol-3-yl}-pyridin-2-ylamine]	250 °C
CCOc1cc(-c2cc(C(F)(F)F)n3ncc(-c4nc(-c5ccc(N)nc5)no4)c3n2)ccc1C(F)(F)F [Example 69, 5-{5-[5-(3-Ethoxy-4-trifluoromethyl-phenyl)-7-trifluoromethyl-pyrazolo[1,5-a]pyrimidin-3-yl]-[1,2,4]oxadiazol-3-yl}-pyridin-2-ylamine]	263 °C
Nc1ccc(-c2noc(-c3cnn4c(C(F)(F)F)cc(-c5ccc(C(F)(F)F)c(OCC(F)(F)F)c5)nc34)n2)cn1 [Example 70, 5-(5-{5-[3-(2,2,2-Trifluoro-ethoxy)-4-trifluoromethyl-phenyl]-7-trifluoromethyl-pyrazolo[1,5-a]pyrimidin-3-yl}-[1,2,4]oxadiazol-3-yl)-pyridin-2-ylamine]	284 °C

The next lines start with the values.

melting point	Compound
257 °C	Nc1ccc(-c2noc(-c3cnn4c(C(F)(F)F)cc(-c5ccc(C(F)(F)F)cc5)nc34)n2)cn1 [Example 35, 5-{5-[7-Trifluoromethyl-5-(4-trifluoromethyl-phenyl)-pyrazolo[1,5-a]pyrimidin-3-yl]-[1,2,4]oxadiazol-3-yl}-pyridin-2-ylamine]
242 °C	Nc1ccc(-c2noc(-c3cnn4c(C(F)F)cc(-c5ccc(C(F)(F)F)cc5)nc34)n2)cn1 [Example 36, 5-{5-[7-Difluoromethyl-5-(4-trifluoromethyl-phenyl)-pyrazolo[1,5-a]pyrimidin-3-yl]-[1,2,4]oxadiazol-3-yl}-pyridin-2-ylamine]
275 °C	Cc1cc(-c2ccc(Cl)cc2)nc2c(-c3nc(-c4cccc(S(N)(=O)=O)c4)no3)cnn12 [Example 38, 3-{5-[5-(4-Chloro-phenyl)-7-methyl-pyrazolo[1,5-a]pyrimidin-3-yl]-[1,2,4]oxadiazol-3-yl}-benzenesulfonamide]
301 °C	Cc1cc(-c2ccc(Cl)cc2)cn2c(-c3nc(-c4cccc(S(N)(=O)=O)c4)no3)cnc12 [Example 40, 3-{5-[6-(4-Chloro-phenyl)-8-methyl-imidazo[1,2-a]pyridin-3-yl]-[1,2,4]oxadiazol-3-yl}-benzenesulfonamide]
290 °C	Cc1cc(-c2ccc(C(F)(F)F)cc2)cn2c(-c3nc(-c4ccc(S(N)(=O)=O)cc4)no3)cnc12 [Example 43, 4-{5-[8-Methyl-6-(4-trifluoromethyl-phenyl)-imidazo[1,2-a]pyridin-3-yl]-[1,2,4]oxadiazol-3-yl}-benzenesulfonamide]
326 °C	Cc1cc(-c2ccc(C(F)(F)F)cc2)cn2c(-c3nc(-c4cccc(S(N)(=O)=O)c4)no3)cnc12 [Example 44, 3-{5-[8-Methyl-6-(4-trifluoromethyl-phenyl)-imidazo[1,2-a]pyridin-3-yl]-[1,2,4]oxadiazol-3-yl}-benzenesulfonamide]
285 °C	Cc1cc(-c2ccc(C(F)(F)F)cc2)cn2c(-c3nc(-c4ccc(S(N)(=O)=O)s4)no3)cnc12 [Example 45, 5-{5-[8-Methyl-6-(4-trifluoromethyl-phenyl)-imidazo[1,2-a]pyridin-3-yl]-[1,2,4]oxadiazol-3-yl}-thiophene-2-sulfonic acid amide]
223 °C	NS(=O)(=O)c1cccc(-c2noc(-c3cnn4ccc(-c5ccc(Cl)cc5)nc34)n2)c1 [Example 49, 3-{5-[5-(4-Chloro-phenyl)-pyrazolo[1,5-a]pyrimidin-3-yl]-[1,2,4]oxadiazol-3-yl}-benzenesulfonamide]
288 °C	NS(=O)(=O)c1ccc(-c2noc(-c3cnc4ccc(-c5ccc(C(F)(F)F)cc5)cn34)n2)cc1 [Example 50, 4-{5-[6-(4-Trifluoromethyl-phenyl)-imidazo[1,2-a]pyridin-3-yl]-[1,2,4]oxadiazol-3-yl}-benzenesulfonamide]
288 °C	NS(=O)(=O)c1cccc(-c2noc(-c3cnc4ccc(-c5ccc(C(F)(F)F)cc5)cn34)n2)c1 [Example 51, 3-{5-[6-(4-Trifluoromethyl-phenyl)-imidazo[1,2-a]pyridin-3-yl]-[1,2,4]oxadiazol-3-yl}-benzenesulfonamide]
251 °C	NS(=O)(=O)c1ccc(-c2noc(-c3cnn4ccc(-c5ccc(C(F)(F)F)cc5)nc34)n2)s1 [Example 52, 5-{5-[5-(4-Trifluoromethyl-phenyl)-pyrazolo[1,5-a]pyrimidin-3-yl]-[1,2,4]oxadiazol-3-yl}-thiophene-2-sulfonic acid amide]
270 °C	NS(=O)(=O)c1cccc(-c2noc(-c3cnn4ccc(-c5ccc(C(F)(F)F)cc5)nc34)n2)c1 [Example 53, 3-{5-[5-(4-Trifluoromethyl-phenyl)-pyrazolo[1,5-a]pyrimidin-3-yl]-[1,2,4]oxadiazol-3-yl}-benzenesulfonamide]
280 °C	NS(=O)(=O)c1ccc(-c2noc(-c3cnc4ccc(-c5ccc(C(F)(F)F)cc5)cn34)n2)s1 [Example 54, 5-{5-[6-(4-Trifluoromethyl-phenyl)-imidazo[1,2-a]pyridin-3-yl]-[1,2,4]oxadiazol-3-yl}-thiophene-2-sulfonic acid amide]
277 °C	Nc1cc(-c2noc(-c3cnn4c(C(F)(F)F)cc(-c5ccc(C(F)(F)F)cc5)nc34)n2)ccn1 [Example 58, 4-{5-[7-Trifluoromethyl-5-(4-trifluoromethyl-phenyl)-pyrazolo[1,5-a]pyrimidin-3-yl]-[1,2,4]oxadiazol-3-yl}-pyridin-2-ylamine]
250 °C	Nc1cc(-c2noc(-c3cnn4ccc(-c5ccc(C(F)(F)F)cc5)nc34)n2)ccn1 [Example 59, 4-{5-[5-(4-Trifluoromethyl-phenyl)-pyrazolo[1,5-a]pyrimidin-3-yl]-[1,2,4]oxadiazol-3-yl}-pyridin-2-ylamine]
264 °C	Cc1cc(-c2ccc(C(F)(F)F)cc2)cn2c(-c3nc(-c4ccnc(N)c4)no3)cnc12 [Example 60, 4-{5-[8-Methyl-6-(4-trifluoromethyl-phenyl)-imidazo[1,2-a]pyridin-3-yl]-[1,2,4]oxadiazol-3-yl}-pyridin-2-ylamine]
280 °C	Nc1cc(-c2noc(-c3cnc4ccc(-c5ccc(C(F)(F)F)cc5)cn34)n2)ccn1 [Example 61, 4-{5-[6-(4-Trifluoromethyl-phenyl)-imidazo[1,2-a]pyridin-3-yl]-[1,2,4]oxadiazol-3-yl}-pyridin-2-ylamine]
253 °C	Nc1ccc(-c2noc(-c3cnn4c(C(F)(F)F)cc(-c5ccc(Cl)cc5)nc34)n2)cn1 [Example 62, 5-{5-[5-(4-Chloro-phenyl)-7-trifluoromethyl-pyrazolo[1,5-a]pyrimidin-3-yl]-[1,2,4]oxadiazol-3-yl}-pyridin-2-ylamine]
